Source: patent US20240269304A1, “BCL-XL INHIBITOR ANTIBODY-DRUG CONJUGATES AND METHODS OF USE THEREOF” (Novartis AG, priority 2020, published 2024)
Where two headings read alike, the source gives them in different places.

Tested on: H1650 cells
Assay: CellTiterGlo (CTG) cell viability, 3D, 120 h, H1650 (Example 8)
Type: cell-based, human
Settings: Homo sapiens, NCI-H1650, H1650 3D
Method: H1650 cells were cultivated in RPMI supplemented with 10% heat inactivated fetal bovine serum, penicillin (100 IU/ml), streptomycin (100 μg/ml) and L-glutamine (2 mM). Cell lines were cultured at 37° C. in a humidified atmosphere containing 5% 002. Cells were seeded in 96 microwell round bottom plates (96 microwell Low attachment plates , Costar reference 7007) and exposed to the payloads or ADCs for 120 h (serially diluted; 9 concentrations each, duplicates). Effects of payloads or ADCs on cell viability were assessed after 5 days of incubation at 37° C./5% CO2 by quantification of cellular ATP levels using CellTiterGlo at 75 μL reagent/well. All the conditions were tested in duplicates. Luminescence was quantified on a multipurpose plate reader. IC50S were calculated using standard four-parametric curve fitting. […] Each experiment was performed at least twice, with results being reproducible.

[1] = experiment n1, read-out: H1650 3D CTG IC50 n1
[2] = experiment n2, read-out: H1650 3D CTG IC50 n2
[3] = mean of n1 and n2, read-out: H1650 3D CTG IC50 Mean of n1 and n2

| IC50 [1] [nM] | IC50 [2] [nM] | IC50 [3] [nM] | Structure (SMILES) |
| --- | --- | --- | --- |
| 6.1 | 6.2 | 6.15 | CNCCOC1Cc2c(nnc(Nc3nc4ccccc4s3)c2C)N(c2nc(C(=O)O)c(CCCOc3ccc(C#CCN(C)C)cc3F)s2)C1 (stereo not drawn) [P16, 2-{3-[(1,3-Benzothiazol-2-yl)amino]-4-methyl-6-[2-(methylamino)ethoxy]-5H,6H,7H,8H-pyrido[2,3-c]pyridazin-8-yl}-5-(3-{4-[3-(dimethylamino)prop-1-yn-1-yl]-2-fluorophenoxy}propyl)-1,3-thiazole-4-carboxylic acid] |
| 1.8 | 3.5 | 2.65 | Cc1c(Nc2nc3ccccc3s2)nnc2c1CCCN2c1nc(C(=O)O)c(CCCOc2ccc(C#CCN3CCCCC3)cc2F)s1 [P18, 2-[3-(1,3-Benzothiazol-2-ylamino)-4-methyl-6,7-dihydro-5H-pyrido[2,3-c]pyridazin-8-yl]-5-[3-[2-fluoro-4-[3-(1-piperidyl)prop-1-ynyl]phenoxy]propyl]thiazole-4-carboxylic acid] |
| 4 | 2.8 | 3.4 | Cc1c(Nc2nc3ccccc3s2)nnc2c1CCCN2c1ccc(-c2cnn(C[C@]34C[C@]5(C)C[C@](C)(C3)C[C@@](OCCNCC(CO)CO)(C5)C4)c2C)c(C(=O)O)n1 [P23, 6-[3-(1,3-benzothiazol-2-ylamino)-4-methyl-6,7-dihydro-5H-pyrido[2,3-c]pyridazin-8-yl]-3-[1-[[3-[2-[[3-hydroxy-2-(hydroxymethyl)propyl]amino]ethoxy]-5,7-dimethyl-1-adamantyl]methyl]-5-methyl-pyrazol-4-yl]pyridine-2-carboxylic acid] |
| 2.1 | 1.8 | 1.95 | Cc1c(Nc2nc3ccccc3s2)nnc2c1CCCN2c1ccc(-c2cnn(C[C@]34C[C@]5(C)C[C@](C)(C3)C[C@@](OCCNC(CO)CO)(C5)C4)c2C)c(C(=O)O)n1 [P24, 6-[3-(1,3-benzothiazol-2-ylamino)-4-methyl-6,7-dihydro-5H-pyrido[2,3-c]pyridazin-8-yl]-3-[1-[[3-[2-[[2-hydroxy-1-(hydroxymethyl)ethyl]amino]ethoxy]-5,7-dimethyl-1-adamantyl]methyl]-5-methyl-pyrazol-4-yl]pyridine-2-carboxylic acid] |
| 0.68 | 0.69 | 0.69 | Cc1cc(N(C)c2ccc(-c3cnn(C[C@]45C[C@]6(C)C[C@](C)(C4)C[C@@](OCCNCCCO)(C6)C5)c3C)c(C(=O)O)n2)nnc1Nc1nc2ccccc2s1 [P26, 6-[[6-(1,3-benzothiazol-2-ylamino)-5-methyl-pyridazin-3-yl]-methyl-amino]-3-[1-[[3-[2-(3-hydroxypropylamino)ethoxy]-5,7-dimethyl-1-adamantyl]methyl]-5-methyl-pyrazol-4-yl]pyridine-2-carboxylic acid] |
| 0.22 | 0.3 | 0.26 | Cc1c(Nc2nc3ccccc3s2)nnc2c1CCCN2c1ccc(-c2cnn(C[C@]34C[C@]5(C)C[C@](C)(C3)C[C@@](OCCN(C)C)(C5)C4)c2C)c(C(=O)O)n1 [P27, 6-{3-[(1,3-benzothiazol-2-yl)amino]-4-methyl-6,7-dihydropyrido[2,3-c]pyridazin-8(5H)-yl}-3-[1-({3-[2-(dimethylamino)ethoxy]-5,7-dimethyladamantan-1-yl}methyl)-5-methyl-1H-pyrazol-4-yl]pyridine-2-carboxylic acid] |
| 0.39 | 0.18 | 0.29 | Cc1c(Nc2nc3ccccc3s2)nnc2c1CCCN2c1nc(C(=O)O)c(CCCOc2ccc(C#CCN(C)C)cc2)s1 [P28, 2-[3-(1,3-benzothiazol-2-ylamino)-4-methyl-6,7-dihydro-5H-pyrido[2,3-c]pyridazin-8-yl]-5-[3-[4-[3-(dimethylamino)prop-1-ynyl]phenoxy]propyl]thiazole-4-carboxylic acid] |
| 0.57 | 0.47 | 0.52 | COCCCNCCOC12CC3(C)CC(C)(CC(Cn4ncc(-c5ccc(N(C)c6cc(C)c(Nc7nc8ccccc8s7)nn6)nc5C(=O)O)c4C)(C3)C1)C2 [P29, 6-[[6-(1,3-benzothiazol-2-ylamino)-5-methyl-pyridazin-3-yl]-methyl-amino]-3-[1-[[3-[2-(3-methoxypropylamino)ethoxy]-5,7-dimethyl-1-adamantyl]methyl]-5-methyl-pyrazol-4-yl]pyridine-2-carboxylic acid] |
| 0.57 | 1.4 | 0.99 | Cc1c(Nc2nc3ccccc3s2)nnc2c1CCCN2c1ccc(-c2cnn(C[C@]34C[C@]5(C)C[C@](C)(C3)C[C@@](OCCN3CCNCC3)(C5)C4)c2C)c(C(=O)O)n1 [P31, 6-[3-(1,3-benzothiazol-2-ylamino)-4-methyl-6,7-dihydro-5H-pyrido[2,3-c]pyridazin-8-yl]-3-[1-[[3,5-dimethyl-7-(2-piperazin-1-ylethoxy)-1-adamantyl]methyl]-5-methyl-pyrazol-4-yl]pyridine-2-carboxylic acid] |
| 0.24 | 0.22 | 0.23 | Cc1c(Nc2nc3ccccc3s2)nnc2c1CCCN2c1ccc(-c2cnn(C[C@]34C[C@]5(C)C[C@](C)(C3)C[C@@](OCCN3CCN(C(C)C)CC3)(C5)C4)c2C)c(C(=O)O)n1 [P32, 6-[3-(1,3-benzothiazol-2-ylamino)-4-methyl-6,7-dihydro-5H-pyrido[2,3-c]pyridazin-8-yl]-3-[1-[[3-[2-(4-isopropylpiperazin-1-yl)ethoxy]-5,7-dimethyl-1-adamantyl]methyl]-5-methyl-pyrazol-4-yl]pyridine-2-carboxylic acid] |
| 0.65 | 0.87 | 0.76 | Cc1c(Nc2nc3ccccc3s2)nnc2c1CCCN2c1nc(C(=O)O)c(CCCOc2ccc(C#CCN(C)CC[C@H](O)CO)cc2F)s1 [P34, 2-[3-(1,3-benzothiazol-2-ylamino)-4-methyl-6,7-dihydro-5H-pyrido[2,3-c]pyridazin-8-yl]-5-[3-[4-[3-[[(3S)-3,4-dihydroxybutyl]-methyl-amino]prop-1-ynyl]-2-fluoro-phenoxy]propyl]thiazole-4-carboxylic acid] |
| 0.23 | 0.27 | 0.25 | Cc1c(Nc2nc3ccccc3s2)nnc2c1CCCN2c1ccc(-c2cnn(C[C@]34C[C@]5(C)C[C@](C)(C3)C[C@@](OCCN(C)CCO)(C5)C4)c2C)c(C(=O)O)n1 [P35, 6-[3-(1,3-benzothiazol-2-ylamino)-4-methyl-6,7-dihydro-5H-pyrido[2,3-c]pyridazin-8-yl]-3-[1-[[3-[2-[2-hydroxyethyl(methyl)amino]ethoxy]-5,7-dimethyl-1-adamantyl]methyl]-5-methyl-pyrazol-4-yl]pyridine-2-carboxylic acid] |
| 0.26 | 0.31 | 0.29 | COCCCN(C)CCOC12CC3(C)CC(C)(CC(Cn4ncc(-c5ccc(N6CCCc7c6nnc(Nc6nc8ccccc8s6)c7C)nc5C(=O)O)c4C)(C3)C1)C2 [P36, 6-[3-(1,3-benzothiazol-2-ylamino)-4-methyl-6,7-dihydro-5H-pyrido[2,3-c]pyridazin-8-yl]-3-[1-[[3-[2-[3-methoxypropyl(methyl)amino]ethoxy]-5,7-dimethyl-1-adamantyl]methyl]-5-methyl-pyrazol-4-yl]pyridine-2-carboxylic acid] |
| 0.4 | 1.2 | 0.8 | Cc1c(Nc2nc3ccccc3s2)nnc2c1CCCN2c1ccc(-c2cnn(C[C@]34C[C@]5(C)C[C@](C)(C3)C[C@@](OCCN(C)CCCCO)(C5)C4)c2C)c(C(=O)O)n1 [P37, 6-[3-(1,3-benzothiazol-2-ylamino)-4-methyl-6,7-dihydro-5H-pyrido[2,3-c]pyridazin-8-yl]-3-[1-[[3-[2-[4-hydroxybutyl(methyl)amino]ethoxy]-5,7-dimethyl-1-adamantyl]methyl]-5-methyl-pyrazol-4-yl]pyridine-2-carboxylic acid] |
| 0.19 | 0.33 | 0.26 | Cc1c(Nc2nc3ccccc3s2)nnc2c1CCCN2c1ccc(-c2cnn(CC34CC5(C)CC(C)(C3)CC(OCCN3CCCCC3)(C5)C4)c2C)c(C(=O)O)n1 [P38, 6-[3-(1,3-benzothiazol-2-ylamino)-4-methyl-6,7-dihydro-5H-pyrido[2,3-c]pyridazin-8-yl]-3-[1-[[3,5-dimethyl-7-[2-(1-piperidyl)ethoxy]-1-adamantyl]methyl]-5-methyl-pyrazol-4-yl]pyridine-2-carboxylic acid] |
| 0.21 | 0.34 | 0.28 | Cc1c(Nc2nc3ccccc3s2)nnc2c1CCCN2c1ccc(-c2cnn(C[C@]34C[C@]5(C)C[C@](C)(C3)C[C@@](OCCN3CCOCC3)(C5)C4)c2C)c(C(=O)O)n1 [P39, 6-[3-(1,3-benzothiazol-2-ylamino)-4-methyl-6,7-dihydro-5H-pyrido[2,3-c]pyridazin-8-yl]-3-[1-[[3,5-dimethyl-7-(2-morpholinoethoxy)-1-adamantyl]methyl]-5-methyl-pyrazol-4-yl]pyridine-2-carboxylic acid] |
| 3.3 | 2.1 | 2.7 | Cc1c(Nc2nc3ccccc3s2)nnc2c1CCCN2c1ccc(-c2cnn(C[C@]34C[C@@]5(C)C[C@](C)(C[C@](CCCN6CCCC6)(C5)C3)C4)c2C)c(C(=O)O)n1 [P41, 6-[3-(1,3-benzothiazol-2-ylamino)-4-methyl-6,7-dihydro-5H-pyrido[2,3-c]pyridazin-8-yl]-3-[1-[[3,5-dimethyl-7-(3-pyrrolidin-1-ylpropyl)-1-adamantyl]methyl]-5-methyl-pyrazol-4-yl]pyridine-2-carboxylic acid] |
